pIC50, pKd: −log10 of the molar value.
Experiments:
[1] = biological target: T1, Axl (Homo sapiens, UniProt P30530); test: Cellular Axl inhibition ELISA (p-Axl, Gas6-induced) using H1299 cells; format: cell-based; parameters: especially H1299 cell endogenously expresses Axl; endogenous in cells; host or cells: H1299; settings: read-out: Cellular Axl activity by H1299 Elisa (IC50)
T1 sequence (P30530 26-894): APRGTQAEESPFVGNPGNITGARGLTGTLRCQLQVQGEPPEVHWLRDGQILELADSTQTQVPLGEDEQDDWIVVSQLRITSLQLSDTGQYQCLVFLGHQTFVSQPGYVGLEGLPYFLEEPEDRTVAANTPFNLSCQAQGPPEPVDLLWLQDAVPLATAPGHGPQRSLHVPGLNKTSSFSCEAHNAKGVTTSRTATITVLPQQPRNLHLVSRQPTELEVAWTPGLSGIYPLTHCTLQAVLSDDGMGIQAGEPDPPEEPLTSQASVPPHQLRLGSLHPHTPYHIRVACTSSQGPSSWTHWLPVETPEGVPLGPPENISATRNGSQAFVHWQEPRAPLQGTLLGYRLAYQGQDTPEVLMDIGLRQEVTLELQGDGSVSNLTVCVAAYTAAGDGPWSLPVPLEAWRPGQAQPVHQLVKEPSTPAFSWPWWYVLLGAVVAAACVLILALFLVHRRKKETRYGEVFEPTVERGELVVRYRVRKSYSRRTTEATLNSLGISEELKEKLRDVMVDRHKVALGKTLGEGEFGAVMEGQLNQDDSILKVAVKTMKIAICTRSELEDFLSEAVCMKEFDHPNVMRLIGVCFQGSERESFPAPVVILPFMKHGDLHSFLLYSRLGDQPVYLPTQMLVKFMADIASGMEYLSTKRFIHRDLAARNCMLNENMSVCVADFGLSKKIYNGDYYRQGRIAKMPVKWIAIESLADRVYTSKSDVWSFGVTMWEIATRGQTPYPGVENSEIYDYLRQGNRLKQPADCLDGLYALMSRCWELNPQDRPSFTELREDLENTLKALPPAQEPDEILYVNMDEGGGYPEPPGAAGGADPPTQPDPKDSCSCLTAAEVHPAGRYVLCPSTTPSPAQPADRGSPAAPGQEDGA
Method in brief: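 H1299 cells, seeded overnight, exposed 24 h at 37 °C to 10-point 3-fold compound dilutions, then stimulated with 200 ng/ml human Gas6 (final) for 1 h. Lysates assayed for p-Axl by sandwich ELISA with HRP/TMB, absorbance 450 nm; IC50 by sigmoidal dose-response fit.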

[2] = biological target: T1, Axl; test: LanthaScreen Eu kinase binding assay for Axl; settings: read-out: Axl kinase binding activity (Kd)
Method in brief: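 Kd values come from control-normalized FRET loss, referenced to DMSO vehicle wells, after 1 h at room temperature. Each compound was serially diluted over eight steps in DMSO and competed against Tracer 236 (Alexa Fluor 647) for the kinase, which was tagged by a Eu anti-GST antibody.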

SMILES | pIC50 [1] | pKd [2]
COc1cc2nccc(Oc3ccc(NC(=O)c4nn(C5CC5)cc4OCC(F)(F)F)nc3)c2cc1OC [Compound 5] | > 6.30 | > 7.00
COc1cc2nccc(Oc3ccc(NC(=O)c4nn(C5CCNC5)cc4OCC(F)(F)F)cc3F)c2cc1OC (centres unmarked) [Compound 78] | > 6.30 | > 7.00
COc1cc2nccc(Oc3ccc(NC(=O)c4nn(CCN)cc4OCC(F)(F)F)cc3C)c2cc1OC [Compound 82] | ≤ 6.00 | ≤ 6.30
COc1cc2nccc(Oc3ccc(NC(=O)c4nn(CC(C)O)cc4OCC(F)(F)F)cc3C)c2cc1OC (centres unmarked) [Compound 83] | > 6.30 | > 7.00
COc1cc2nccc(Oc3ccc(NC(=O)c4nn(C5CCOC5)cc4OCC(F)(F)F)cc3C)c2cc1OC (centres unmarked) [Compound 85] | > 6.30 | > 7.00
COc1cc2nccc(Oc3ccc(NC(=O)c4nn(CC(C)C)cc4OCC(F)(F)F)cc3)c2cc1OC [Compound 87] | > 6.30 | > 7.00
COc1cc2nccc(Oc3ccc(NC(=O)c4nn(CCN)cc4OCC(F)(F)F)cc3)c2cc1OC [Compound 88] | 6.00 to 6.30 | 6.30 to 7.00
COc1cc2nccc(Oc3ccc(NC(=O)c4nn(CC(C)O)cc4OCC(F)(F)F)cc3)c2cc1OC (centres unmarked) [Compound 89] | > 6.30 | > 7.00
COc1cc2nccc(Oc3ccc(NC(=O)c4nn(C5CCOCC5)cc4OCC(F)(F)F)nc3)c2cc1OC [Compound 90] | > 6.30 | > 7.00
COc1cc2nccc(Oc3ccc(NC(=O)c4nn(CCC5CCCC5)cc4OCC(F)(F)F)nc3)c2cc1OC [Compound 93] | > 6.30 | > 7.00
COc1cc2nccc(Oc3ccc(NC(=O)c4nn(C5CCN(C)C5)cc4OCC(F)(F)F)c(F)c3)c2cc1OC (centres unmarked) [Compound 94] | > 6.30 | > 7.00

Continued, values first:

pIC50 [1] | pKd [2] | SMILES
> 6.30 | > 7.00 | COc1cc2nccc(Oc3ccc(NC(=O)c4nn(C5CCOC5)cc4OCC(F)(F)F)c(F)c3)c2cc1OC (centres unmarked) [Compound 77]
> 6.30 | > 7.00 | COc1cc2nccc(Oc3ccc(NC(=O)c4nn(CCN)cc4OCC(F)(F)F)cc3F)c2cc1OC [Compound 79]
> 6.30 | > 7.00 | COc1cc2nccc(Oc3ccc(NC(=O)c4nn(CC(C)O)cc4OCC(F)(F)F)cc3F)c2cc1OC (centres unmarked) [Compound 80]
≤ 6.00 | ≤ 6.30 | COc1cc2nccc(Oc3ccc(NC(=O)c4nn(C5CCNC5)cc4OCC(F)(F)F)cc3C)c2cc1OC (centres unmarked) [Compound 81]
> 6.30 | > 7.00 | COCCn1cc(OCC(F)(F)F)c(C(=O)Nc2ccc(Oc3ccnc4cc(OC)c(OC)cc34)c(C)c2)n1 [Compound 84]
> 6.30 | 6.30 to 7.00 | COc1cc2nccc(Oc3ccc(NC(=O)c4nn(C5CCNC5)cc4OCC(F)(F)F)cc3)c2cc1OC (centres unmarked) [Compound 86]
> 6.30 | > 7.00 | COc1cc2nccc(Oc3ccc(NC(=O)c4nn(C5CCN(C)C5)cc4OCC(F)(F)F)nc3)c2cc1OC (centres unmarked) [Compound 91]
> 6.30 | > 7.00 | COc1cc2nccc(Oc3ccc(NC(=O)c4nn(CC5COC5)cc4OCC(F)(F)F)c(F)c3)c2cc1OC [Compound 95]

— patent US12162858B2, “Quinoline derivatives as inhibitors of AXL/MER RTK and CSF1R” (QURIENT CO., LTD., priority 2018, dated 2024)
